PubChem BioAssay (NCI)
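Interpolation was linear, between the two tested concentrations surrounding the appropriate level; five concentrations were tested over 48 hours in 96-well plates. TGI marks complete inhibition of growth.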

Columns and labels:
Assay in all cases: NCI tumour cell line growth inhibition, 48 h
P388 leukemia = test system: P388 leukemia
OVCAR-4 ovarian = test system: OVCAR-4 ovarian
SF-295 CNS = test system: SF-295 CNS
SW-620 colon = test system: SW-620 colon
EKVX NSCLC = test system: EKVX NSCLC
UACC-257 melanoma = test system: UACC-257 melanoma
COLO 205 colon = test system: COLO 205 colon
HT29 colon = test system: HT29 colon
KM20L2 colon = test system: KM20L2 colon
HCT-15 colon = test system: HCT-15 colon
XF 498 CNS = test system: XF 498 CNS
OVCAR-5 ovarian = test system: OVCAR-5 ovarian
SF-268 CNS = test system: SF-268 CNS
SNB-78 CNS = test system: SNB-78 CNS
NCI-H460 lung = test system: NCI-H460 lung
MALME-3M melanoma = test system: MALME-3M melanoma
OVCAR-3 ovarian = test system: OVCAR-3 ovarian
SK-OV-3 ovarian = test system: SK-OV-3 ovarian
HCT-116 colon = test system: HCT-116 colon
A549 NSCLC = test system: A549 NSCLC
SF-539 CNS = test system: SF-539 CNS
HOP-18 NSCLC = test system: HOP-18 NSCLC
DLD-1 colon = test system: DLD-1 colon
UACC-62 melanoma = test system: UACC-62 melanoma
OVCAR-8 ovarian = test system: OVCAR-8 ovarian
IGROV1 ovarian = test system: IGROV1 ovarian
A498 renal = test system: A498 renal
NCI/ADR-RES ovarian = test system: NCI/ADR-RES ovarian
CAKI-1 renal = test system: CAKI-1 renal
LOX IMVI melanoma = test system: LOX IMVI melanoma
SNB-75 CNS = test system: SNB-75 CNS
SN12C renal = test system: SN12C renal
DMS 273 small cell lung = test system: DMS 273 small cell lung
HL-60(TB) leukemia = test system: HL-60(TB) leukemia
HCC-2998 colon = test system: HCC-2998 colon
HOP-92 NSCLC = test system: HOP-92 NSCLC
SK-MEL-2 melanoma = test system: SK-MEL-2 melanoma
SN12K1 renal = test system: SN12K1 renal
SK-MEL-28 melanoma = test system: SK-MEL-28 melanoma
P388/ADR leukemia = test system: P388/ADR leukemia
MCF7 breast = test system: MCF7 breast
U251 CNS = test system: U251 CNS
RPMI-8226 leukemia = test system: RPMI-8226 leukemia
KM12 colon = test system: KM12 colon
SNB-19 CNS = test system: SNB-19 CNS
CCRF-CEM leukemia = test system: CCRF-CEM leukemia
DMS 114 small cell lung = test system: DMS 114 small cell lung
NCI-H23 lung = test system: NCI-H23 lung
NCI-H522 lung = test system: NCI-H522 lung
MOLT-4 leukemia = test system: MOLT-4 leukemia
UO-31 renal = test system: UO-31 renal
K-562 leukemia = test system: K-562 leukemia
SK-MEL-5 melanoma = test system: SK-MEL-5 melanoma
M19-MEL melanoma = test system: M19-MEL melanoma
RXF 393 renal = test system: RXF 393 renal
HOP-62 NSCLC = test system: HOP-62 NSCLC

Measured: TGI

CN(C)C(=O)N(CCCl)N=O
> 100 µM: P388 leukemia | OVCAR-4 ovarian | SF-295 CNS | SW-620 colon | EKVX NSCLC | UACC-257 melanoma | COLO 205 colon | HT29 colon | KM20L2 colon | HCT-15 colon | XF 498 CNS | OVCAR-5 ovarian | SF-268 CNS | SNB-78 CNS | NCI-H460 lung | MALME-3M melanoma | OVCAR-3 ovarian | SK-OV-3 ovarian | HCT-116 colon | A549 NSCLC | SF-539 CNS | HOP-18 NSCLC | DLD-1 colon | UACC-62 melanoma | OVCAR-8 ovarian | IGROV1 ovarian | A498 renal | NCI/ADR-RES ovarian | CAKI-1 renal | LOX IMVI melanoma | SNB-75 CNS | SN12C renal | DMS 273 small cell lung | HL-60(TB) leukemia | HCC-2998 colon | HOP-92 NSCLC | SK-MEL-2 melanoma | SN12K1 renal | SK-MEL-28 melanoma | P388/ADR leukemia | MCF7 breast | U251 CNS | RPMI-8226 leukemia | KM12 colon | SNB-19 CNS | CCRF-CEM leukemia | DMS 114 small cell lung | NCI-H23 lung | NCI-H522 lung | MOLT-4 leukemia | UO-31 renal | K-562 leukemia | SK-MEL-5 melanoma | M19-MEL melanoma | RXF 393 renal | HOP-62 NSCLC
